Experimental data as given in article PMC6351562, “Structure, function, and inhibition of drug reactivating human gut microbial β-glucuronidases” (Scientific Reports, 2019).
Values joined by “and” are separate entries in the source; they are usually repeats but may differ in a detail not shown here. Equal entries are not always repeated.

What was measured:
Assay in all cases: In vitro DCF-G processing assay (UPLC)
Format in all cases: biochemical
[1] = target: T1, Eubacterium eligens GUS (EeGUS) (Lachnospira eligens, UniProt C4Z6Z2); settings: DCF-G as substrate, 400 µM; pH 6.5; 37 °C
T1 sequence (C4Z6Z2 1-611): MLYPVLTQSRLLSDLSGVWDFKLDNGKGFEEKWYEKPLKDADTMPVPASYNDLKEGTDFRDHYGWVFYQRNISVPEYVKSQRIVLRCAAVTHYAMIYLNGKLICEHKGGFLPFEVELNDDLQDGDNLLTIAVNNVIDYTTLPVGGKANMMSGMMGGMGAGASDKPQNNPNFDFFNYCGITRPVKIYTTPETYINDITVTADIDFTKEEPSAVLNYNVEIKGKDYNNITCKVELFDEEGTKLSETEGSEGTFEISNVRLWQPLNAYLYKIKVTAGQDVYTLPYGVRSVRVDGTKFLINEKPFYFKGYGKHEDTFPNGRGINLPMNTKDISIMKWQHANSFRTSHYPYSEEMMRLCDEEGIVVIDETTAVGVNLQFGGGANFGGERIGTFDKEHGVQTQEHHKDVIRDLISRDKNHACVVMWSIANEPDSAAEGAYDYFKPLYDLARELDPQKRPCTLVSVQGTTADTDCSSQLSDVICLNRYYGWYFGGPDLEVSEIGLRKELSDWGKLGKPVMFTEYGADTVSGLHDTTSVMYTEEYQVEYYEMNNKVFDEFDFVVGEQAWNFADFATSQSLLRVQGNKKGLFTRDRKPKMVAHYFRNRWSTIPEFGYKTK

[2] = target: T2, Streptococcus agalactiae GUS (SaGUS) (Streptococcus agalactiae serotype V, UniProt Q8E0N2); settings: DCF-G as substrate, 400 µM; pH 6.5; 37 °C
T2 construct: 6x His; made in house
Description: (§1) While pNPG serves as a useful tool to assess the glucuronide processing capabilities of GUS enzymes, it is not a substrate present in the GI tract. Given our hypothesis that L1 GUS enzymes efficiently process drug glucuronides, we determined using ultra performance liquid chromatography (UPLC) the cleavage rates of the novel L1 GUS enzymes FpGUS, LrGUS, RgGUS, as well as the ten additional enzymes in our GUS panel, with the physiologically relevant glucuronide metabolite of the NSAID diclofenac, DCF-G (Table 3 and Fig. S11).
(§2) Diclofenac acyl β-D-glucuronide (DCF-G) was purchased as a solid (LC Scientific Inc., Concord ON) and resuspended in DMSO to a concentration of 25 mM. […] The pH of each reaction was chosen based on the optimal pH determined for each GUS with pNPG. Reactions were quenched at 0, 1, 2, 3, 4, and 5 min with 50 µL of 25% trichloroacetic acid (TCA). For PmGUS, reactions were quenched at 0, 10, 20, 30, 40, and 50 min. After centrifugation at 13,000xg for 10 min, the resultant supernatant was subjected to UPLC analysis. The concentration of DCF-G remaining at each time point was quantified on a Waters Acquity H-class liquid chromatograph system. Samples were separated on a Waters Acquity UPLC BEH C18 column (2.1 × 50 mm, 1.7 µm particle size) at 40 °C. The flow rate was 0.6 mL/min, and the injection volume was 3 µL. LC conditions were set at 100% water with 0.1% formic acid (A) ramped linearly over 9.8 mins to 95% acetonitrile with 0.1% formic acid (B) and held until 10.2 mins. At 10.21 mins the gradient was switched back to 100% A and allowed to re-equilibrate until 11.25 mins. DCF-G was monitored at 280 nm. The concentration of DCF-G was determined from a standard curve (0–500 µM DCF-G in assay buffer). Control reactions were performed in which enzyme was substituted with buffer. Background hydrolysis was not observed at each pH tested. Reactions were performed in triplicate for each enzyme.

[3] = target: Bacteroides fragilis GUS (BfGUS) (Bacteroides fragilis, UniProt Q5LIC7); settings: DCF-G as substrate, 400 µM; pH 5.0; 37 °C
Description: as §1, §2

E. coli GUS (EcGUS) = E. coli GUS (EcGUS) (Escherichia coli, UniProt P05804); settings: DCF-G as substrate, 400 µM; pH 7.4; 37 °C
Description: as §1, §2

[4] = target: T3, Faecalibacterium prausnitzii GUS (FpGUS) (Faecalibacterium duncaniae, UniProt C7H4D2); settings: DCF-G as substrate, 400 µM; pH 6.0; 37 °C
T3 sequence (C7H4D2 1-608): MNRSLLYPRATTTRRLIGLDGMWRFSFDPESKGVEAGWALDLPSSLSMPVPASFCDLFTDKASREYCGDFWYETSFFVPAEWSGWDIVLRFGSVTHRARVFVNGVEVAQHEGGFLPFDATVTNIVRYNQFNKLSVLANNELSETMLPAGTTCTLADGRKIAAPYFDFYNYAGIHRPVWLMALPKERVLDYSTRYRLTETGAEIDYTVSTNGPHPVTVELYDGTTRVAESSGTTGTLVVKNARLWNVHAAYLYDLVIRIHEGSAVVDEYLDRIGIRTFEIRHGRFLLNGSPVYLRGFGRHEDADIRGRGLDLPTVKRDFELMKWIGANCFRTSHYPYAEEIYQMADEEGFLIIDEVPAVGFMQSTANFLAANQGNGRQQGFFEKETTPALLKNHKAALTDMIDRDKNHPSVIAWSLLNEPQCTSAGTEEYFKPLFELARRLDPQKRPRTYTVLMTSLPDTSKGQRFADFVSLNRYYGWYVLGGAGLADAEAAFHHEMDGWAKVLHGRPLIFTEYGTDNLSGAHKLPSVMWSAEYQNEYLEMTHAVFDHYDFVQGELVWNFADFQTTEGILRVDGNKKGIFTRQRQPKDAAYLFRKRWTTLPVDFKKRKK

Chain of Bacteroides fragilis GUS (BfGUS) (Q5LIC7 whole entry): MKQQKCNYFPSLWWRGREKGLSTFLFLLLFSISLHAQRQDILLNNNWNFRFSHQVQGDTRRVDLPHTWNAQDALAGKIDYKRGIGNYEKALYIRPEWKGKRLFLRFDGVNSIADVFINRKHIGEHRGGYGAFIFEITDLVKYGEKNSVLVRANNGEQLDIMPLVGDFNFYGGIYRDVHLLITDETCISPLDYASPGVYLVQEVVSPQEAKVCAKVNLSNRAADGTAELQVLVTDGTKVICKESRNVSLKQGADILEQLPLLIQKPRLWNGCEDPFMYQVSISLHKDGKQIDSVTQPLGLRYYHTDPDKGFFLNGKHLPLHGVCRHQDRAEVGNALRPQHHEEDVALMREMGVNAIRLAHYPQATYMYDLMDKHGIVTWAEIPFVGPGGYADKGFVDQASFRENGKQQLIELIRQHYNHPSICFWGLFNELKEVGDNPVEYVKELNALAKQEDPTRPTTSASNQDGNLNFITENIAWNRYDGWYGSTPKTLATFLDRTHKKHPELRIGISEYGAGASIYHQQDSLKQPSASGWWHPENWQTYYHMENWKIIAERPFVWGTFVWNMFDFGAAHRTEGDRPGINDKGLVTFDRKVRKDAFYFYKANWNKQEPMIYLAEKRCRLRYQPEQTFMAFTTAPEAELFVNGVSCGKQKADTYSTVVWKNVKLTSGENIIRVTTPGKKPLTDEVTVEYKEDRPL
T2 sequence (Q8E0N2 whole entry): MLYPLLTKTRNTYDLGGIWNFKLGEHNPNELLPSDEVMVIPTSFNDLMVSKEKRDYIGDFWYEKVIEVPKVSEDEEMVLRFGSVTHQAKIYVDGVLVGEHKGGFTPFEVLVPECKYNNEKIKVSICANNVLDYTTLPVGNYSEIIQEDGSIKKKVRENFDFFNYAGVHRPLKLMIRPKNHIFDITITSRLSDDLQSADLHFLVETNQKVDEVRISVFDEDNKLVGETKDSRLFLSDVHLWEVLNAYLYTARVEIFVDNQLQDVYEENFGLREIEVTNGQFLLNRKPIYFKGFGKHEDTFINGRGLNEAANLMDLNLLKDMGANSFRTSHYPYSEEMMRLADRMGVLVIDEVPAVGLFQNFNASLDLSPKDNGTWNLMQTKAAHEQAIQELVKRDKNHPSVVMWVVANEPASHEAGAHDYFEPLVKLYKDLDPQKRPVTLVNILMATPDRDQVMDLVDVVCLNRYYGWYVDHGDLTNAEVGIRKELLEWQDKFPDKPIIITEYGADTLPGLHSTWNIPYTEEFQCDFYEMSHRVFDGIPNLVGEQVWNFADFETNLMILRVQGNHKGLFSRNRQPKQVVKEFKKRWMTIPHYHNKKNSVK
Chain of E. coli GUS (EcGUS) (P05804 whole entry): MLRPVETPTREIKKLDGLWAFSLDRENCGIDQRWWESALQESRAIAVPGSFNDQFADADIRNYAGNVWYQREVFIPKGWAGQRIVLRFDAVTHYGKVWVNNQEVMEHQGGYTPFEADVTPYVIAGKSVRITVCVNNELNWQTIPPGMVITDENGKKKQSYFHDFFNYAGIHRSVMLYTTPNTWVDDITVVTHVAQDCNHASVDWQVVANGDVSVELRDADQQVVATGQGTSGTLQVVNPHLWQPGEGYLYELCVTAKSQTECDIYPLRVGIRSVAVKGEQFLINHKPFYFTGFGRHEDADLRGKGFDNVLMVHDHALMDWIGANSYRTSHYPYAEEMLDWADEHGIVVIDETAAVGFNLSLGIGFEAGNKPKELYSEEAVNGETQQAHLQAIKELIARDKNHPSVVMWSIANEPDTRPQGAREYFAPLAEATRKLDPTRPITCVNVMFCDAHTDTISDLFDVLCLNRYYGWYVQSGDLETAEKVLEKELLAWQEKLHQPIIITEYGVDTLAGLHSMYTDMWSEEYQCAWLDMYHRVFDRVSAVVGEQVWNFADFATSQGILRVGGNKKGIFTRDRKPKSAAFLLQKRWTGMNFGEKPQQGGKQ

Q: With O=C(Cc1ccccc1Nc1c(Cl)cccc1Cl)O[C@@H]1O[C@H](C(=O)O)[C@@H](O)[C@H](O)[C@H]1O [DCF-G, Diclofenac acyl β-D-glucuronide] as the compound, how does the “Apparent kcat” value [1] read?
A: 138 s⁻¹ and 138 ± 2 s⁻¹

Q: And the “Apparent kcat” value [2]?
A: 97 s⁻¹ and 97 ± 5 s⁻¹

Q: What about the “Apparent kcat” value [3] of the same compound?
A: 15.1 s⁻¹ and 15.1 ± 0.5 s⁻¹

Q: And the “Apparent kcat” value (E. coli GUS (EcGUS))?
A: 30.7 s⁻¹ and 30.7 ± 0.7 s⁻¹

Q: What about the “Apparent kcat” value [4] of the same compound?
A: 32 ± 3 s⁻¹
